Reference: the supplement of paper PMC11451515

System: P12-Ichikawa
Assay: cell viability relative to DMSO control; higher = less cytotoxic
Conditions: 48 h
How it was run: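 Viability is expressed as a percentage of DMSO wells within each plate, and cell-free wells serve as background. Seeding densities in the 1536-well plates (5 μl) were 500 cells/well for NOMO1 or SEM leukemia cells and 1000 cells/well for P12-Ichikawa. Each line was adapted for at least four passages in each medium. Library compounds in DMSO were pin-dosed at 47 μM to 0.79 nM (11 points, threefold), and CellTiter-Glo One luminescence was read after 48 h at 37°C.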

[1] = HPLM + 10% dialyzed FBS, 0.000781 µM
[2] = HPLM + 10% dialyzed FBS, 0.00234 µM
[3] = HPLM + 10% dialyzed FBS, 0.00702 µM
[4] = HPLM + 10% dialyzed FBS, 0.0211 µM
[5] = HPLM + 10% dialyzed FBS, 0.0632 µM
[6] = HPLM + 10% dialyzed FBS, 0.19 µM
[7] = HPLM + 10% dialyzed FBS, 0.569 µM
[8] = HPLM + 10% dialyzed FBS, 1.71 µM
[9] = HPLM + 10% dialyzed FBS, 5.12 µM
[10] = HPLM + 10% dialyzed FBS, 15.4 µM
[11] = HPLM + 10% dialyzed FBS, 46.1 µM
[12] = RPMI 5 mM glucose + 10% FBS, 0.000781 µM
[13] = RPMI 5 mM glucose + 10% FBS, 0.00234 µM
[14] = RPMI 5 mM glucose + 10% FBS, 0.00702 µM
[15] = RPMI 5 mM glucose + 10% FBS, 0.0211 µM
[16] = RPMI 5 mM glucose + 10% FBS, 0.0632 µM
[17] = RPMI 5 mM glucose + 10% FBS, 0.19 µM
[18] = RPMI 5 mM glucose + 10% FBS, 0.569 µM
[19] = RPMI 5 mM glucose + 10% FBS, 1.71 µM
[20] = RPMI 5 mM glucose + 10% FBS, 5.12 µM
[21] = RPMI 5 mM glucose + 10% FBS, 15.4 µM
[22] = RPMI 5 mM glucose + 10% FBS, 46.1 µM
[23] = RPMI 5 mM glucose + 10% dialyzed FBS, 0.000781 µM
[24] = RPMI 5 mM glucose + 10% dialyzed FBS, 0.00234 µM
[25] = RPMI 5 mM glucose + 10% dialyzed FBS, 0.00702 µM
[26] = RPMI 5 mM glucose + 10% dialyzed FBS, 0.0211 µM
[27] = RPMI 5 mM glucose + 10% dialyzed FBS, 0.0632 µM
[28] = RPMI 5 mM glucose + 10% dialyzed FBS, 0.19 µM
[29] = RPMI 5 mM glucose + 10% dialyzed FBS, 0.569 µM
[30] = RPMI 5 mM glucose + 10% dialyzed FBS, 1.71 µM
[31] = RPMI 5 mM glucose + 10% dialyzed FBS, 5.12 µM
[32] = RPMI 5 mM glucose + 10% dialyzed FBS, 15.4 µM
[33] = RPMI 5 mM glucose + 10% dialyzed FBS, 46.1 µM

Row | SMILES | cell viability [1] [%] | cell viability [2] [%] | cell viability [3] [%] | cell viability [4] [%] | cell viability [5] [%] | cell viability [6] [%] | cell viability [7] [%] | cell viability [8] [%] | cell viability [9] [%] | cell viability [10] [%] | cell viability [11] [%] | cell viability [12] [%] | cell viability [13] [%] | cell viability [14] [%] | cell viability [15] [%] | cell viability [16] [%] | cell viability [17] [%] | cell viability [18] [%] | cell viability [19] [%] | cell viability [20] [%] | cell viability [21] [%] | cell viability [22] [%] | cell viability [23] [%] | cell viability [24] [%] | cell viability [25] [%] | cell viability [26] [%] | cell viability [27] [%] | cell viability [28] [%] | cell viability [29] [%] | cell viability [30] [%] | cell viability [31] [%] | cell viability [32] [%] | cell viability [33] [%]
1 | Nc1ccc([S+](=O)([O-])Nc2ncccn2)cc1 | 118 | 120 | 124 | 95.8 | 128 | 131 | 126 | 125 | 125 | 119 | 126 | 115 | 114 | 122 | 74.2 | 133 | 118 | 127 | 126 | 132 | 133 | 106 |  |  |  |  |  |  |  |  |  |  | 
2 | COc1cc(OC)c(C(=O)CCCN2CCCC2)c(OC)c1 | 116 | 120 | 128 | 119 | 120 | 116 | 112 | 113 | 118 | 117 | 116 | 119 | 123 | 132 | 130 | 125 | 124 | 122 | 109 | 112 | 111 | 111 |  |  |  |  |  |  |  |  |  |  | 
3 | C[C@H](Cc1ccc(O)c(O)c1)[C@@H](C)Cc1ccc(O)c(O)c1 | 115 | 114 | 120 | 122 | 118 | 116 | 117 | 116 | 114 | 87.5 | 18.1 | 125 | 130 | 123 | 128 | 130 | 126 | 118 | 125 | 115 | 75.9 | 16.3 | 124 | 121 | 119 | 118 | 124 | 120 | 109 | 114 | 115 | 70.9 | 20.6
4 | N=C(N)Nc1ccc(C(=O)Oc2ccc3cc(C(=N)N)ccc3c2)cc1 | 88.3 | 104 | 98.8 | 92.5 | 103 | 95.5 | 88.6 | 83.9 | 87.9 | 87.4 | 72.3 | 96.4 | 93 | 99.4 | 90.5 | 102 | 95.9 | 91.1 | 97 | 88.4 | 95.7 | 52 | 83.8 | 92.3 | 86.5 | 83.4 | 89.5 | 85 | 86.7 | 87.1 | 85.1 | 83.7 | 53
5 | COc1ccc(C2(C#N)CCC(C(=O)O)CC2)cc1OC1CCCC1 (stereo not given) | 96.2 | 105 | 108 | 108 | 104 | 107 | 103 | 99.2 | 105 | 108 | 109 | 94.8 | 97.6 | 96.6 | 95.2 | 96.8 | 101 | 106 | 103 | 97.9 | 103 | 96.2 | 91.5 | 95.6 | 92.8 | 93.4 | 101 | 102 | 100 | 108 | 94.3 | 100 | 87.9
6 | CC(C)c1c(C(=O)Nc2ccccc2)c(-c2ccccc2)c(-c2ccc(F)cc2)n1CC[C@@H](O)C[C@@H](O)CC(=O)[O-] | 101 | 102 | 106 | 99.4 | 98.6 | 97.4 | 106 | 91.2 | 85.7 | 85.2 | 47.2 | 97.5 | 92.6 | 99.6 | 94.7 | 97.1 | 87.9 | 93.3 | 87.6 | 68.4 | 56.3 | 23.2 | 97.4 | 91.9 | 91.2 | 92 | 95.7 | 90.5 | 89.5 | 83.8 | 85.1 | 67.6 | 36.3
7 | Cc1nc(N)ncc1-c1nc(N2CCOCC2)c2sc(C(C)(C)O)cc2n1 | 125 | 122 | 119 | 113 | 83 | 10.9 | 7.79 | 5.43 | 4.61 | 4.97 | 4.1 | 116 | 122 | 114 | 120 | 116 | 121 | 18.5 | 7.92 | 6.16 | 5.72 | 5.39 | 124 | 118 | 125 | 120 | 122 | 118 | 13.2 | 8.68 | 7.11 | 6.92 | 5.85
8 | CN(C)[C@@H](CCOc1cccc2ccccc12)c1ccccc1 | 112 | 111 | 113 | 115 | 115 | 112 | 109 | 104 | 101 | 104 | 88.5 | 116 | 118 | 131 | 122 | 113 | 116 | 115 | 101 | 92.2 | 110 | 73.1 | 111 | 102 | 114 | 110 | 115 | 105 | 111 | 108 | 98.2 | 106 | 67.1
9 | Oc1c(Cl)cc(Cl)c2cccnc12 | 107 | 112 | 109 | 100 | 105 | 107 | 112 | 103 | 109 | 97.4 | 70.6 | 100 | 95.4 | 109 | 107 | 108 | 102 | 101 | 101 | 96.2 | 80.8 | 30.5 | 99.1 | 99.4 | 110 | 95.2 | 102 | 101 | 103 | 99.1 | 96.8 | 85.5 | 21.8
10 | N[C@@H](Cc1ccc(O)c(O)c1)C(=O)O | 122 | 124 | 118 | 119 | 130 | 123 | 127 | 122 | 125 | 131 | 121 |  |  |  |  |  |  |  |  |  |  |  |  |  |  |  |  |  |  |  |  |  | 
11 | CCCCc1nc2cc(/C=C/C(=O)NO)ccc2n1CCN(CC)CC | 93 | 98.5 | 103 | 95.9 | 95.7 | 104 | 90.1 | 83.7 | 3.65 | 2.43 | 4.19 | 86.9 | 96.3 | 96.2 | 83.5 | 101 | 91.3 | 95.7 | 85.7 | 12.3 | 2.22 | 3.51 | 95.7 | 95.6 | 93.5 | 90.4 | 100 | 101 | 98.6 | 79.5 | 17.6 | 1.97 | 3.51
12 | COc1cc(Cl)cn2c(-c3cccc(NC4CNC4)n3)cnc12 | 125 | 121 | 131 | 125 | 129 | 130 | 131 | 135 | 129 | 127 | 139 |  |  |  |  |  |  |  |  |  |  |  |  |  |  |  |  |  |  |  |  |  | 
13 | C=CC(=O)Nc1ccc2ncnc(Nc3ccc(OCc4cccc(F)c4)c(Cl)c3)c2c1 | 97 | 111 | 104 | 105 | 113 | 109 | 97.2 | 105 | 85.1 | 10.7 | 10.7 | 97.3 | 105 | 109 | 105 | 110 | 107 | 118 | 103 | 83.1 | 13.4 | 12.3 | 97.1 | 111 | 117 | 122 | 111 | 118 | 116 | 107 | 81 | 21.4 | 16.4
14 | CCc1cc(-c2n[nH]c(C)c2-c2ccc3c(c2)OCCO3)c(O)cc1O | 115 | 133 | 119 | 132 | 132 | 135 | 131 | 135 | 131 | 96.7 | 74.7 |  |  |  |  |  |  |  |  |  |  |  |  |  |  |  |  |  |  |  |  |  | 
15 | NC\1=N\C(=O)N(\C=C1F)[C@H]2C[C@H](O)[C@@H](CO)O2 | 118 | 127 | 104 | 101 | 90.6 | 65.2 | 43.7 | 45.4 | 37 | 27.9 | 36.9 |  |  |  |  |  |  |  |  |  |  |  |  |  |  |  |  |  |  |  |  |  | 
16 | CO[C@@H]1[C@@H](O)[C@H](O)[C@@H](n2c3c(Cl)cccc3c3c4c(c5c6cccc(Cl)c6[nH]c5c32)C(=O)NC4=O)O[C@H]1CO | 109 | 100 | 108 | 106 | 100 | 81.9 | 14.3 | 5.78 | 7.57 | 4.61 | 3.32 | 101 | 104 | 103 | 103 | 94.9 | 71 | 8.36 | 6.11 | 4.86 | 3.72 | 3.9 | 97.7 | 91.4 | 96.1 | 94.7 | 85.7 | 68.4 | 14 | 7.72 | 8.77 | 6.63 | 4.8
17 | Cc1ccc([S+](=O)([O-])Nc2cc(Cl)ccc2C(=O)Nc2nc(-c3ccccc3)cs2)cc1 |  |  |  |  |  |  |  |  |  |  |  |  |  |  |  |  |  |  |  |  |  |  | 124 | 130 | 117 | 123 | 128 | 119 | 117 | 116 | 114 | 101 | 26.6
18 | NNc1nncc2ccccc12 | 112 | 121 | 127 | 122 | 126 | 131 | 121 | 134 | 129 | 124 | 130 |  |  |  |  |  |  |  |  |  |  |  |  |  |  |  |  |  |  |  |  |  | 
